Results taken from PubChem BioAssay (NCI).
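GI50 = concentration required for 50% inhibition of growth. TGI is the concentration that stops growth completely.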

Assays:
Assay in all cases: NCI-60 cell line screen, 384-well format
[1] = test system: SNB-75 CNS
[2] = test system: LOX IMVI melanoma
[3] = test system: NCI-H522 lung
[4] = test system: IGROV1 ovarian
[5] = test system: CCRF-CEM leukemia
[6] = test system: HOP-92 NSCLC
[7] = test system: MOLT-4 leukemia
[8] = test system: 786-0 renal
[9] = test system: DU-145 prostate
[10] = test system: HCT-116 colon
[11] = test system: RPMI-8226 leukemia
[12] = test system: NCI-H23 lung
[13] = test system: SF-539 CNS

C[C@@H](C(=O)Nc1ccc(Cl)cc1)C1CCC(c2ccnc3ccc(F)cc23)CC1 (stereo partly specified) gave a GI50 [1] of 14.7 µM, a TGI [1] of 37.9 µM and a GI50 [2] of 8.67 µM. The TGI [2] was 21.2 µM, the GI50 [3] was 3.24 µM and the TGI [3] was 15.9 µM. It also gave a GI50 [4] of 8.55 µM, a TGI [4] of over 47.7 µM and a GI50 [5] of 2.64 µM. The TGI [5] was 7.41 µM, the GI50 [6] was 8.04 µM and the TGI [6] was 29.4 µM. The GI50 [7] was 2.22 µM, the TGI [7] was 6.85 µM and the GI50 [8] was 10.8 µM. For the same molecule, the TGI [8] was 27 µM, the GI50 [9] was 8.74 µM and the TGI [9] was 33.2 µM. The GI50 [10] was 6.31 µM, the TGI [10] was 20.4 µM and the GI50 [11] was 2.58 µM. For the same molecule, the TGI [11] was 7.6 µM, the GI50 [12] was 3.76 µM and the TGI [12] was 16 µM. For the same molecule, the GI50 [13] was 14.2 µM and the TGI [13] was 27.5 µM.
